Test results taken from patent US20250346550A1, “METHODS OF MODULATING ENDONUCLEASE G USING RESVERATROL AND ITS DERIVATIVES” (THE REGENTS OF THE UNIVERSITY OF COLORADO A BODY CORPORATE, priority 2022, published 2025).

Experiments:
CPS-6 = target: T1, CPS-6 (Caenorhabditis elegans, UniProt Q95NM6); assay: plasmid DNA cleavage assay; format: biochemical, C. elegans; conditions: 20 μM; for effect on CPS-6 nuclease activity: 10 ng CPS-6, pPD49.78 plasmid DNA
T1 construct: Recombinant CPS-6 protein was incubated with the supercoiled plasmid DNA substrate
T1 sequence (Q95NM6 1-308): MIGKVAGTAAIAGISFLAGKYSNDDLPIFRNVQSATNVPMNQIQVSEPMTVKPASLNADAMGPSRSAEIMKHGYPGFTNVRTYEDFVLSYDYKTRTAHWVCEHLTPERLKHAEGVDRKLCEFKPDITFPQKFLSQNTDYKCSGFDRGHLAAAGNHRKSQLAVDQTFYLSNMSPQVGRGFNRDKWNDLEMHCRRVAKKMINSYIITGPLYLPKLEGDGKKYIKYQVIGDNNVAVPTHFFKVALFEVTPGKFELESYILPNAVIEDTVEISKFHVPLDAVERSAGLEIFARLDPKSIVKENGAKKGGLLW
Procedure: FIG. 3. Resveratrol isomers target CPS-6 to affect PME. a, b, Both cis-resveratrol and trans-resveratrol act paternally to affect PME. The numbers of MTR-stained paternal mitochondrial clusters in embryos at 64-cell (a) or 16-cell (b) stage from the indicated crosses were scored. N2 males or hermaphrodites were pretreated with 0.25% ethanol (Mock), 50 μM cis-resveratrol (a), or 50 μM trans-resveratrol (b) as indicated before mating. c-g, Quantification of MTR-stained paternal mitochondrial clusters in 64-cell embryos from the indicated crosses treated with 0.25% ethanol (Mock), 50 μM cis-resveratrol, and 50 μM trans-resveratrol, respectively. Alleles used are lgg-1(bp523), cps-6(tm3222) and rad-23(tm2595). Data are mean s.e.m; n≥15 embryos (a) and n≥20 embryos (b, c-g) were scored in each experiment. ***P<0.001; n.s., not significant, two-sided, unpaired t-test. h, Resveratrol isomers enhance or inhibit the nuclease activity of CPS-6 in a plasmid DNA cleavage assay. 10 ng of CPS-6 were incubated with 0.25% ethanol (Mock), 20 μM cis-resveratrol, or 20 μM trans-resveratrol in dark at 4° C. for 1.5 hours, before 1 μg of the pPD49.78 plasmid DNA were added to the reactions. After further incubation at 30° C. for 1 hour, the reactions were resolved on a 1% agarose gel. Three different forms of plasmid DNA are indicated.
FIG. 11. Stabilized trans-resveratrol enhances the nuclease activity of CPS-6 in a plasmid DNA cleavage assay and is resistant to UV irradiation. 10 ng of CPS-6 were incubated with 0.25% ethanol (Mock), 20 μM locked trans-resveratrol with or without UV irradiation, 20 μM trans-resveratrol with or without UV irradiation, and 20 μM cis-resveratrol with or without UV irradiation, respectively, in dark at 4° C. for 1.5 hours, before 1 μg of the pPD49.78 plasmid DNA were added to the reactions. After further incubation at 30° C. for 1 hour, the reactions were resolved on a 1% agarose gel. Three different forms of plasmid DNA are indicated. Resveratrol isomers or derivative were subjected to UV irradiation for 3 hours.
Because resveratrol is an antioxidant and the endonuclease activity of CPS-6 is regulated by redox conditions both in vitro and in vivo, we investigated the possibility that resveratrol isomers could directly affect the nuclease activity of CPS-6 using a plasmid DNA cleavage assay. Recombinant CPS-6 protein was incubated with the supercoiled plasmid DNA substrate in the presence or absence of 20 μM trans-resveratrol or cis-resveratrol and the reactions were resolved by an agarose gel. […] Since the nuclease activity of CPS-6 is required for PME, these in vitro results are consistent with the in vivo observations that trans-resveratrol enhances and cis-resveratrol inhibits PME.

[1] = tested on: paternal uaDf5 mtDNA in cross-fertilized embryos; assay: PCR-based PME assay (paternal uaDf5 mtDNA); format: in vivo, C. elegans; conditions: 50 μM; mock: detected up to 64-cell stage embryos
Description: FIG. 7. Effects of different dosages of resveratrol isomers on PME. a, b, The effects of different dosages of cis-resveratrol (a) and trans-resveratrol (b) on PME. The numbers of MTR-stained paternal mitochondrial clusters in 64-cell embryos (a) or 16-cell embryos (b) from mating of MTR-stained N2 males with N2 hermaphrodites in the presence of the indicated concentrations of resveratrol isomers were scored. […] A single cross-fertilized embryo or larva (MTR- or GFP-positive) at the indicated stage was analyzed by PCR. uaDf5/+ and N2 hermaphrodites were controls.
We confirmed these findings using a polymerase chain reaction (PCR)-based PME assay, which monitors the fate of paternal mtDNA in fertilized eggs from males carrying a 3053 bp mtDNA deletion allele (uaDf5) in a heteroplasmic mixture with wild-type mtDNA (FIG. 7c). In mating between N2 hermaphrodites and uaDf5/+ males treated with the mock control, PCR products derived specifically from paternal uaDf5 mtDNA were detected only in early stage cross-fertilized embryos, up to 64-cell stage embryos (FIG. 2d).

[2] = tested on: α-synuclein-induced dopaminergic neuronal death in baIn11 animals; assay: α-synuclein-based Parkinson's Disease model, DA neuronal death; format: in vivo, C. elegans; conditions: 100 μM; for effect on α-synuclein-induced DA neuronal death: adult day 2 baIn11 animals vs 0.25% ethanol
Description: FIG. 8. […] In each experiment, 300 animals were scored to determine the percentage of animals losing at least one dopaminergic neuron in the head. Data are mean±s.e.m. *P<0.05; ***P<0.001, two-sided, unpaired t-test.
FIG. 13. […] In each experiment, 300 animals were scored to determine the percentage of animals losing at least one of the six dopaminergic neurons in the head. Data are mean±s.e.m. ****P<0.001, two-sided, unpaired t-test.
In addition to PME and apoptosis, EndoG was previously shown to play an important role in mediating dopaminergic (DA) neuronal death induced by expression of human α-synuclein, which is widely considered to be a major proponent of Parkinson's disease. However, the mechanism by which EndoG mediates α-synuclein-induced neurodegeneration is unclear. In a C. elegans α-synuclein-based Parkinson's Disease model, co-expression of GFP and human α-synuclein in C. elegans dopaminergic neurons under the control of the promoter of the dat-1 gene, which encodes a dopamine transporter, from an integrated transgene baIn11 (Pdat-1::gfp/Pdat-1::α-synuclein) caused DA neuronal death in 30% of adult baIn11 animals (FIG. 8a). The cps-6(tm3222) mutation blocked DA neuronal death in adult baIn11 animals (FIG. 8a), confirming that CPS-6 is important for α-synuclein-induced DA neuronal death.

## Oc1ccc(/C=C\c2cc(O)cc(O)c2)cc1 [cis-resveratrol]
CPS-6
  effect on CPS-6 nuclease activity: inhibits CPS-6 nuclease activity
[1]
  fate of paternal uaDf5 mtDNA: persistence of uaDf5 mtDNA to the late 4-fold embryos
[2]; adult day 2
  adult baIn11 animals protected from neurodegeneration: 94%
[2]
  effect on α-synuclein-induced DA neuronal death: strongly inhibited DA neuronal death

## Oc1ccc(/C=C/c2cc(O)cc(O)c2)cc1 [trans-resveratrol, 3,5,4′-trihydroxy-trans-stilbene]
CPS-6
  effect on CPS-6 nuclease activity: enhances the endonuclease activity of CPS-6
CPS-6; compound UV irradiated for 3 hours (FIG. 11)
  effect on CPS-6 nuclease activity after UV irradiation of the compound: lost its activity to enhance the nuclease activity of CPS-6
[1]
  fate of paternal uaDf5 mtDNA: accelerated degradation of uaDf5 mtDNA
[2]; adult day 2, mock 30%
  adult baIn11 animals with neurodegeneration (DA neuronal loss): 40%
[2]
  effect on α-synuclein-induced DA neuronal death: enhanced dopaminergic neuron loss
